Results on 40 compounds are retold here after ChEMBL document CHEMBL5390246, “Design, synthesis and SAR of novel 7-azaindole derivatives as potential Erk5 kinase inhibitor with anticancer activity” (Bioorg Med Chem, 2023).

Each structure is given as a SMILES string. ≈ marks a conversion by molar mass, not a printed value. Calls of active or inactive are those of the source. No cut-off for these calls is given here.

By IC50 is commonly meant the concentration that gives 50% inhibition.

Assay [1] deals with A549. The experiment in a line: Antiproliferative activity against human A549 cells assessed as cell growth inhibition rate at 20 ug/mL incubated for 48 hrs by MTT assay relative to control. Particulars: dose 20 µg/ml. In kind it is functional. Also noted: scale not given: the % may be the effect or the level left. Background: Formazan colour is commonly taken as a measure of viable cells.

The subject of assay [2] is A549. The experiment in a line: Antiproliferative activity against human A549 cells assessed as cell growth inhibition incubated for 48 hrs by MTT assay. The note with it: A549, 48 h. In kind it is functional, cell-based.
Assay [3] deals with A549. The experiment in a line: Induction of apoptosis in human A549 cells assessed as irregular cell morphology at 2.5 to 10 uM incubated for 48 hrs by light microscopic analysis. In kind it is functional, cell-based. Particulars: dose 2.5-10 µM.
For assay [4], the system named is A549. The experiment in a line: Induction of apoptosis in human A549 cells assessed as chromatin condensation at 2.5 to 10 uM incubated for 48 hrs by DAPI staining based fluorescence microscopic analysis. In kind it is functional, cell-based. Particulars: dose 2.5-10 µM.
The subject of assay [5] is A549. The experiment in a line: Antitumor activity against human A549 cells assessed as decrease in phosphorylation of Erk5 incubated for 48 hrs by Western blotting analysis. The assay is classed as functional, cell-based. The note with it: dose 2.5-10 µM.
Assay [6] has as its system A549. The experiment in a line: Induction of apoptosis in human A549 cells assessed as inhibition of colony formation incubated for 10 days by crystal violet staining based assay. Particulars: dose 2.5-10 µM, time 10.0 day. In kind it is functional, cell-based.
Assay [7] relates to A549. The experiment in a line: Induction of apoptosis in human A549 cells assessed as formation of apoptotic bodies at 2.5 to 10 uM incubated for 48 hrs by DAPI staining based fluorescence microscopic analysis. Particulars: dose 2.5-10 µM. The assay is classed as functional, cell-based.

`C1=C(c2c[nH]c3ccccc23)CCN(Cc2ccc3ccccc3c2)C1`: the Activity in the assay on A549 [1] is reported as 70.17%. Take `Fc1ccccc1CN1CC=C(c2c[nH]c3ncccc23)CC1`: the Activity with A549 [1] is recorded as 3.55%. On to `Clc1ccc(CN2CC=C(c3c[nH]c4ncccc34)CC2)cc1Cl`, for which the Activity in the assay with A549 [1] stood at 80.28%. The IC50 with A549 [2] was determined as 7.33 µg/mL (≈ 20.5 µM). Turning to `FC(F)(F)c1ccc(CN2CC=C(c3c[nH]c4ncccc34)CC2)cc1`, in the assay on A549 [1], the Activity amounted to 44.64%. As for `S=C(c1ccc(Cl)cc1)N1CC=C(c2c[nH]c3ncccc23)CC1`, in the assay on A549 [1], the Activity turned out to be 51.43%.

`O=C(c1ccccc1)N1CC=C(c2c[nH]c3ncccc23)CC1`: the Activity in the assay with A549 [1] came out at 58.37%. Turning to `Clc1cccc(CN2CC=C(c3c[nH]c4ncccc34)CC2)c1`, the Activity with A549 [1] worked out at 52.55%. Same read-out and setting: the same measure for `O=C(c1ccc(F)cc1)N1CC=C(c2c[nH]c3ncccc23)CC1`: 59.94%. Still for that read-out and setting: the result for `O=C(c1ccc(Cl)cc1)N1CCC(c2c[nH]c3ncccc23)CC1` reads 50.17%; that for `O=C(c1ccc([N+](=O)[O-])cc1)N1CC=C(c2c[nH]c3ncccc23)CC1`, 69.77%.

Regarding `O=C(c1ccccc1F)N1CCC(c2c[nH]c3ncccc23)CC1`, the Activity with A549 [1] was determined as 48.02%.

Take `O=C(c1ccc2ccccc2c1)N1CC=C(c2c[nH]c3ncccc23)CC1`: the Activity in the assay with A549 [1] was 62.25%.

Consider `O=C(c1ccc(Cl)cc1)N1CC=C(c2c[nH]c3ccccc23)CC1`, for which the Activity in the assay with A549 [1] is 67.52%.

Turning to `Cc1ccc(CN2CC=C(c3c[nH]c4ncccc34)CC2)cc1`, the Activity with A549 [1] is 54.95%. The same measure, in the same setting: the result for `Fc1ccc(CN2CC=C(c3c[nH]c4ncccc34)CC2)cc1` reads 43.89%; that for `COc1ccc(CN2CC=C(c3c[nH]c4ncccc34)CC2)cc1`, -3.33%. The same measure, in the same setting: the result for `Clc1ccc(CN2CC=C(c3c[nH]c4ccccc34)CC2)cc1Cl` reads 56.41%. For `Brc1ccc(CN2CC=C(c3c[nH]c4ncccc34)CC2)cc1`, in the assay on A549 [1], the Activity is on record as -25.78%.

`Nc1ccc(C(=O)N2CC=C(c3c[nH]c4ncccc34)CC2)cc1`: the Activity in the assay on A549 [1] stood at 45.12%. In the case of `C1=C(c2c[nH]c3ncccc23)CCN(Cc2ccccc2)C1`, the Activity in the assay on A549 [1] was 44.74%. For `O=C(c1ccc(C(F)(F)F)cc1)N1CC=C(c2c[nH]c3ncccc23)CC1`, the Activity in the assay with A549 [1] came to 65.74%.

For `c1ccc2cc(CN3CCC(c4c[nH]c5ncccc45)CC3)ccc2c1`, the Activity in the assay on A549 [1] was 76.69%. The same measure, in the same setting: the same measure for `Clc1ccc(CN2CC=C(c3c[nH]c4ncccc34)CC2)cc1`: 0.74%. Regarding `O=C(c1ccc(Cl)cc1)N1CC=C(c2c[nH]c3ncccc23)CC1`, the outcome in the assay with A549 [3], in the assay with A549 [4] and with A549 [7] was Active. In addition, the results for the Activity entry with A549 [5], in the assay with A549 [1] and in the assay on A549 [6] were “Dose-Dependent Effect”, 82.78% and “Dose-Dependent Effect”, respectively. Further, the IC50 in the assay with A549 [2] is 6.23 µg/mL (≈ 18.4 µM). For `O=C(c1ccccc1F)N1CC=C(c2c[nH]c3ccccc23)CC1`, in the assay on A549 [1], the Activity is on record as 50.26%.

With `FC(F)(F)Oc1ccc(CN2CC=C(c3c[nH]c4ncccc34)CC2)cc1`, the Activity in the assay on A549 [1] is on record as 46.56%.

Regarding `Cc1ccc(C(=O)N2CC=C(c3c[nH]c4ncccc34)CC2)cc1`, the Activity in the assay with A549 [1] is 41.24%. Regarding `C1=C(c2c[nH]c3ncccc23)CCN(Cc2ccc3ccccc3c2)C1`, the outcome in the assay with A549 [3], in the assay with A549 [4] and in the assay with A549 [7] was Active. Besides, the results for the Activity entry in the assay with A549 [5], with A549 [1] and with A549 [6] were “Dose-Dependent Effect”, 90.08% and “Dose-Dependent Effect”, respectively. For the same compound, the IC50 in the assay on A549 [2] came out at 4.56 µg/mL (≈ 13.4 µM). For the compound `Clc1ccc(CN2CCC(c3c[nH]c4ncccc34)CC2)cc1Cl`, in the assay with A549 [1], the Activity worked out at 32.22%. In the case of `O=C(c1ccc(Cl)c(Cl)c1)N1CC=C(c2c[nH]c3ncccc23)CC1`, the Activity with A549 [1] came out at 66.12%. Turning to `N#Cc1ccc(C(=O)N2CC=C(c3c[nH]c4ncccc34)CC2)cc1`, the Activity in the assay with A549 [1] came out at 21.45%.

On to `O=C(c1ccccc1F)N1CC=C(c2c[nH]c3ncccc23)CC1`, for which, in the assay with A549 [1], the Activity is recorded as 75.54%. Further, in the assay on A549 [2], the 50% inhibitory concentration (IC50) was determined as 8.52 µg/mL (≈ 26.5 µM). With `N#Cc1ccc(CN2CC=C(c3c[nH]c4ncccc34)CC2)cc1`, the Activity in the assay on A549 [1] amounted to 9.76%. The same measure, in the same setting: the same measure for `Fc1ccccc1C(=S)N1CC=C(c2c[nH]c3ncccc23)CC1`: 65.92%; for `O=[N+]([O-])c1ccc(CN2CC=C(c3c[nH]c4ncccc34)CC2)cc1`: 16.85%. As to `Clc1ccccc1CN1CC=C(c2c[nH]c3ncccc23)CC1`, the Activity in the assay on A549 [1] stood at 84.18%. Moreover, the IC50 in the assay on A549 [2] worked out at 12 µg/mL (≈ 37 µM). Consider `O=C(c1ccccc1Cl)N1CC=C(c2c[nH]c3ncccc23)CC1`, for which, in the assay with A549 [1], the Activity stood at 52.62%. Turning to `O=C(c1ccc(Br)cc1)N1CC=C(c2c[nH]c3ncccc23)CC1`, in the assay with A549 [1], the Activity came out at 71.11%. Besides, the concentration for half-maximal inhibition (IC50) in the assay with A549 [2] was determined as 11 µg/mL (≈ 28.7 µM). The like results for `COc1ccc(C(=O)N2CC=C(c3c[nH]c4ncccc34)CC2)cc1` were, in that order, 70.89% and 10.4 µg/mL (≈ 31.3 µM).

As for `O=C(c1cccc(Cl)c1)N1CC=C(c2c[nH]c3ncccc23)CC1`, the Activity with A549 [1] was 73.66%. Besides, the concentration for half-maximal inhibition (IC50) with A549 [2] is 10.3 µg/mL (≈ 30.6 µM).
